Consider two compounds from ChEMBL document CHEMBL2074297, “Identification of phalloidin uptake systems of rat and human liver” (Biochim Biophys Acta, 2004).

The structures appear in SMILES notation. Starred links: 1 amine or outer side, 2 acyl side, 3 side chain; linkers in the order of their positions; H or OH if unused. Positions of bridges follow the written chain, without caps; N, C: chain ends. Non-standard residues stand in square brackets, D forms with d. Residues, ends and D or L forms follow the SMILES beside them. Trp(2-yl) = O=C([C@H](Cc1c([*:3])[nH]c2ccccc12)N[*:1])[*:2]; Leu(4R-OH,5-OH) = C[C@](O)(CO)C[C@H](N)C(=O)O; cisHyp = O=C(O)[C@@H]1C[C@H](O)CN1

Series [1] addresses T1, Hepatic sodium/bile acid cotransporter (Rattus norvegicus, UniProt P26435).
T1 sequence (P26435 whole entry): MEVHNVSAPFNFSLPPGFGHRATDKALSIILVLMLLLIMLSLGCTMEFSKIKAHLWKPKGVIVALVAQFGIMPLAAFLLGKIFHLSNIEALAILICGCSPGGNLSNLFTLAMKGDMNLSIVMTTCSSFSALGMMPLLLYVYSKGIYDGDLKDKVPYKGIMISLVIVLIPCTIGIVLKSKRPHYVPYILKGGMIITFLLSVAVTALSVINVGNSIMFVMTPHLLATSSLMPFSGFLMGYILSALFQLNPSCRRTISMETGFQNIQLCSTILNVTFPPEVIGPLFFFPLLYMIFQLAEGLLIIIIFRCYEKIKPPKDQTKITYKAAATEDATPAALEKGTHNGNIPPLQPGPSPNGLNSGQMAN
Put plainly: (§1) TP_TRANSPORTER: inhibition of taurocholate uptake (taurocholate: 10 uM) in Xenopus laevis oocytes. The series is classed as functional, cell-based. The settings on record: oocyte.

Series [2] addresses T2, Solute carrier organic anion transporter family member 1A1 (Rattus norvegicus, UniProt P46720).
T2 sequence (P46720 whole entry): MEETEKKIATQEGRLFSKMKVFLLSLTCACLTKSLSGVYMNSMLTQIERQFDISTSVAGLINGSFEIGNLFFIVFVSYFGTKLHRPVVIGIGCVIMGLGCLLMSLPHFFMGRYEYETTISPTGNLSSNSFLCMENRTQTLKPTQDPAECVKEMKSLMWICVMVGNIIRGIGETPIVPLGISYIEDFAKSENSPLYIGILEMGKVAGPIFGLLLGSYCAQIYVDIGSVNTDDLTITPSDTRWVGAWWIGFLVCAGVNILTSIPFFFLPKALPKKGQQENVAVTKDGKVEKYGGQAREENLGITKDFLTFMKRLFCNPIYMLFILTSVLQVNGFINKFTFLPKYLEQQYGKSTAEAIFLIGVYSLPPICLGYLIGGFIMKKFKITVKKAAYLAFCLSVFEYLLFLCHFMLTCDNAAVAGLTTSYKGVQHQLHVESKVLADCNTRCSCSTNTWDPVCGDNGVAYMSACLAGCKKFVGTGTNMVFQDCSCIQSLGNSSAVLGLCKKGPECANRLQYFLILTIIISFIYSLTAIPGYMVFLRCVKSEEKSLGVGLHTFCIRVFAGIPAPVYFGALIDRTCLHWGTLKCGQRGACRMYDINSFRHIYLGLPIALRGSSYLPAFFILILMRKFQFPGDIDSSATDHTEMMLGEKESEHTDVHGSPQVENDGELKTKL
The description is as §1. The series is classed as functional, cell-based. The settings on record: oocyte.

Series [3] has as its target T3, Solute carrier organic anion transporter family member 1B2 (Rattus norvegicus, UniProt Q9QZX8).
T3 sequence (Q9QZX8 whole entry): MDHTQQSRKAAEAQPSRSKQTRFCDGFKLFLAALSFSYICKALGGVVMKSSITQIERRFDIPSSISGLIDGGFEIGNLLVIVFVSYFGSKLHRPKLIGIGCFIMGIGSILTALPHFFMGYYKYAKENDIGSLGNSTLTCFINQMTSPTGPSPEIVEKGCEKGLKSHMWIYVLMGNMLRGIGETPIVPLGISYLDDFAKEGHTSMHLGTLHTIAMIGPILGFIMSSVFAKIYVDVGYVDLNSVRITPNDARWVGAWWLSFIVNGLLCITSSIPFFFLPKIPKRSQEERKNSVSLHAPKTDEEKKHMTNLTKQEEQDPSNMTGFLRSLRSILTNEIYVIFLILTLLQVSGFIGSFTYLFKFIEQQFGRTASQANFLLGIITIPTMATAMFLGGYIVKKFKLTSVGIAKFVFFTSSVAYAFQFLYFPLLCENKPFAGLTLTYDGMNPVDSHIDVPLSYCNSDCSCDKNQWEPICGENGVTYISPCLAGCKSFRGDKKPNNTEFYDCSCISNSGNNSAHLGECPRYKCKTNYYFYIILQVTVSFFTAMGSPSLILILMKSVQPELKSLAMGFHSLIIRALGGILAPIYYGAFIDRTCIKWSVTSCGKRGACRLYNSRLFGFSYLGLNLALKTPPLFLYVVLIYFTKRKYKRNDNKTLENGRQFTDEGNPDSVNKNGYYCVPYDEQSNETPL
Described as §1. The series is classed as functional, cell-based. The settings on record: oocyte.

Series [4] addresses T4, Solute carrier organic anion transporter family member 1A4 (Rattus norvegicus, UniProt O35913).
T4 sequence (O35913 whole entry): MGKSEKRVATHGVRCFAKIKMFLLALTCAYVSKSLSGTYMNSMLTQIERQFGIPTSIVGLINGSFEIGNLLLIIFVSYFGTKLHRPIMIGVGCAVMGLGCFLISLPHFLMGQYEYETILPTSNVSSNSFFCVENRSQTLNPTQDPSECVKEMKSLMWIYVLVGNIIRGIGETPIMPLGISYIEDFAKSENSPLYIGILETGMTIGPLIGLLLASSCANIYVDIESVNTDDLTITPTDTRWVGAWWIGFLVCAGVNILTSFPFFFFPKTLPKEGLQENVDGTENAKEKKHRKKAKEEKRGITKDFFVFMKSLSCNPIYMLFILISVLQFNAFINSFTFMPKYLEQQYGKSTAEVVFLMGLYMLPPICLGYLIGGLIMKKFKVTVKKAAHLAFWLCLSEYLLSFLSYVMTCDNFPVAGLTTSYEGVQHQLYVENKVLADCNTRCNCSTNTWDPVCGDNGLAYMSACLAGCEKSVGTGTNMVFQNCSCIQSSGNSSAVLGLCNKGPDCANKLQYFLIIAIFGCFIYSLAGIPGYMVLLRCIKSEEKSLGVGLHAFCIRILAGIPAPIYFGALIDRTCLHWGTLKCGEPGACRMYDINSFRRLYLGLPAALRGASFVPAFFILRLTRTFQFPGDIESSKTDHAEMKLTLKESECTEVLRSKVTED
Described as §1. The series is classed as functional, cell-based. The settings on record: oocyte.

The target in series [5] is T5, Solute carrier organic anion transporter family member 1B3 (OATP1B3) (Homo sapiens, UniProt Q9NPD5).
T5 sequence (Q9NPD5 whole entry): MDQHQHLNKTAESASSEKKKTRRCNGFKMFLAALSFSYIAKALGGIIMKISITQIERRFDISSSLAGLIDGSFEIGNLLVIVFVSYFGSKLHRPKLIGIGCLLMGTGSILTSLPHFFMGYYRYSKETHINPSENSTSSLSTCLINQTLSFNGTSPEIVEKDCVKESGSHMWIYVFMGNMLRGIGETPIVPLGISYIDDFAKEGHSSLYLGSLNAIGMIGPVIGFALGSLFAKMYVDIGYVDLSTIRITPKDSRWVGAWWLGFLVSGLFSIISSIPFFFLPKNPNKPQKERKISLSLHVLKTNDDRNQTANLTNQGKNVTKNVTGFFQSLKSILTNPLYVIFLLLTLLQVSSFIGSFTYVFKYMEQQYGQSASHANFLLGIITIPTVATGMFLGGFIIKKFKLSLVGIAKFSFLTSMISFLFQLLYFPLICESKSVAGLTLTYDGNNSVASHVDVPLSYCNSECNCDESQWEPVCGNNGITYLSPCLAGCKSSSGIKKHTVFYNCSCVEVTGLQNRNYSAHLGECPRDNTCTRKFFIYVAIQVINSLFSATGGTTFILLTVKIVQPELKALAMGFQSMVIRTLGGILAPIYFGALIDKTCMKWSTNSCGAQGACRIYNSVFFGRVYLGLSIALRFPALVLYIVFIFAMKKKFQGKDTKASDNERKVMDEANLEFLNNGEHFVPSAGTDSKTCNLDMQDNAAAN
As to the kind of experiment: (§2) TP_TRANSPORTER: uptake in Xenopus laevis oocytes. The series is classed as functional, cell-based, Oocyte. The settings on record: Xenopus laevis oocytes expressing the transporter.

The target in series [6] is T6, Solute carrier organic anion transporter family member 1B1 (OATP1B1) (Homo sapiens, UniProt Q9Y6L6).
T6 sequence (Q9Y6L6 whole entry): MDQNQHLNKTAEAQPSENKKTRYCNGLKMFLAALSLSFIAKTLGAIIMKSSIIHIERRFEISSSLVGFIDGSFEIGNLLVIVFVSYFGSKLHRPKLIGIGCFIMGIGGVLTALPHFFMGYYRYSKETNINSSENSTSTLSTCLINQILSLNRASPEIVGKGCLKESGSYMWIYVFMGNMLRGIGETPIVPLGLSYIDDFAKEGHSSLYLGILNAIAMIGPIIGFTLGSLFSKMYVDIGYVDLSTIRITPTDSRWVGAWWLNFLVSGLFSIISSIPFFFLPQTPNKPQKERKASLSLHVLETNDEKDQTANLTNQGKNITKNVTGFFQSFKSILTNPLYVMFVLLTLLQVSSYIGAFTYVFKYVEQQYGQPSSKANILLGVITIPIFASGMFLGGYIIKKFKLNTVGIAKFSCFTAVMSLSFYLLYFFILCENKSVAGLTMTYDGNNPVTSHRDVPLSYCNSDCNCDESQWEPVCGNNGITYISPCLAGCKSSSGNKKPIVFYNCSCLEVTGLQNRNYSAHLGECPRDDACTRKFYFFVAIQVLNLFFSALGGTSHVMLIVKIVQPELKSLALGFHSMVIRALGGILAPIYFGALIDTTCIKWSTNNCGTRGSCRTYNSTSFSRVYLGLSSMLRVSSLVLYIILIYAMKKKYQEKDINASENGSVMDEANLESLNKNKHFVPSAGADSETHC
The description is as §2. The settings on record: Xenopus laevis oocytes expressing the transporter. In kind it is functional, cell-based, Oocyte.

The target in series [7] is T7, Solute carrier organic anion transporter family member 1B2 (OATP1B2) (Rattus norvegicus, UniProt Q9QZX8).
T7 sequence (Q9QZX8 whole entry): T3 sequence (Q9QZX8 whole entry)
Described as §2. In kind it is functional, cell-based, Oocyte. The settings on record: Xenopus laevis oocytes expressing the transporter.

For series [8], the target named is T1, Hepatic sodium/bile acid cotransporter. The description is as §2. The series is classed as functional, cell-based. Particulars: oocyte.
The target in series [9] is T2, Solute carrier organic anion transporter family member 1A1. Described as §2. The series is classed as functional, cell-based. Particulars: oocyte.
Series [10] addresses T8, Solute carrier organic anion transporter family member 2B1 (Homo sapiens, UniProt O94956).
T8 sequence (O94956 whole entry): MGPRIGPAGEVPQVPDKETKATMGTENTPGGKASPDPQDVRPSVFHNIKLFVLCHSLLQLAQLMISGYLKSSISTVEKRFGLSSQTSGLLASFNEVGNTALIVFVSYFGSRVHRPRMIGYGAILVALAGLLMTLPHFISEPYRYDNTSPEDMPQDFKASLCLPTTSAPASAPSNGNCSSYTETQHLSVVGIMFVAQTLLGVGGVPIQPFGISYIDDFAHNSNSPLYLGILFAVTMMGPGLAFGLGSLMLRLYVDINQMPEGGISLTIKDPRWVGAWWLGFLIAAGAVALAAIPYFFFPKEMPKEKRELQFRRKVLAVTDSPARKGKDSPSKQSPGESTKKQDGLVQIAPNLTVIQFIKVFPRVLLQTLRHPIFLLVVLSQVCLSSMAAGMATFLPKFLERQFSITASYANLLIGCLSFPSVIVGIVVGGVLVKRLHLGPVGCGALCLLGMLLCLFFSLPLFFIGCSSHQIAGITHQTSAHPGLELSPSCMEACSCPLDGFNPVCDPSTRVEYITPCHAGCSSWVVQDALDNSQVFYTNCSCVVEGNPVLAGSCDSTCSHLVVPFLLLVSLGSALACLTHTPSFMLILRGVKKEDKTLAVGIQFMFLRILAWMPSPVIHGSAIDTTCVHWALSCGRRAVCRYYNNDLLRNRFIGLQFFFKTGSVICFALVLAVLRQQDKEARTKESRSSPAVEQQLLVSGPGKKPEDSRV
The description is as §2. The series is classed as functional, cell-based. Particulars: oocyte.

Series [11] deals with T4, Solute carrier organic anion transporter family member 1A4. The description is as §2. In kind it is functional, cell-based. Particulars: oocyte.

Consider `C[C@@H]1NC(=O)[C@H](C[C@@](C)(O)CO)NC(=O)[C@@H]2Cc3c([nH]c4ccccc34)SC[C@H](NC(=O)[C@@H]([C@H](C)O)NC1=O)C(=O)N1C[C@@H](O)C[C@H]1C(=O)N[C@@H](C)C(=O)N2` [PHALLOIDIN] (cyclo(A[dT]C[cisHyp]A[Trp(2-yl)][Leu(4R-OH,5-OH)]); thioether 3-6), for which the Activity entry was “is not an inhibitor [-]” in [1], “is not an inhibitor [-]” in series [2], “inhibitor [+]” in series [3] and “is not an inhibitor [-]” in series [4].
As usually defined, the Km is the substrate concentration at which the rate is half of its maximum. Take `CC(O)C[C@@H]1NC(=O)[C@@H]2Cc3c([nH]c4ccccc34)SC[C@@H](NC(=O)[C@H]([C@@H](C)O)NC(=O)[C@H](C)NC1=O)C(=O)N1C[C@H](O)C[C@H]1C(=O)N[C@@H](C)C(=O)N2` (stereo partly specified) [DEMETHYLPHALLOIN]: the results for the Michaelis-Menten constant (Km) in series [5], in [6] and in series [7] were 7.5 µM, 17 µM and 5.7 µM, respectively. In addition, the Activity result in series [8], in series [9], in [10] and in series [11] was “is not a substrate [-]” each time.
